Patent US20160045482A1, “UREIDO-PYRAZOLE DERIVATIVES” (Respivert Limited, priority 2010, published 2016)

Legend:
ICAM-1 = assay: ICAM1 expression activated by human rhinovirus in BEAS2B cells (cell-based ELISA); settings: for IC50: Homo sapiens, BEAS-2B, HRV16 inoculation (2 hr infection), read-out: HRV16-induced ICAM1 IC50 Value
Experimental: BEAS2B cells were infected with rhinovirus at an MOI of 5 and incubated for 2 hr at 33° C. with gentle shaking to enhance adsorption. Test compounds were added 2 hr before HRV infection and 2 hr after infection when residual extracellular HRV was washed out. The cells were then washed with PBS, fresh media was added and the cells were incubated for a further 72 hr. The supernatant was collected for assay of IL-8 concentrations using the Duoset ELISA development kit (R&D Systems, Minneapolis, Minn.). […] After appropriate incubation, cells were fixed with 4% formaldehyde in PBS. After quenching endogenous peroxidase by adding 0.1% sodium azide and 1% hydrogen peroxide, wells were washed with buffer (0.05% Tween in PBS: PBS-Tween). After incubation with the blocking solution (5% milk in PBS-Tween for 1 hr), cells were incubated with anti-human ICAM-1 antibody in 5% BSA PBS-Tween (1:500) overnight. Wells were then washed with PBS-Tween and incubated with the secondary antibody (HRP-conjugated anti-rabbit IgG, Dako Ltd.).

IL-8 = IL-8 release activated by human rhinovirus in BEAS2B cells; assay type: cell-based; settings: Homo sapiens, BEAS-2B; BEAS2B cells, MOI of 5, 72 hr; read-out: HRV16-induced IL-8 IC50 Value
Experimental: BEAS2B cells were infected with rhinovirus at an MOI of 5 and incubated for 2 hr at 33° C. with gentle shaking to enhance adsorption. Test compounds were added 2 hr before HRV infection and 2 hr after infection when residual extracellular HRV was washed out. The cells were then washed with PBS, fresh media was added and the cells were incubated for a further 72 hr. The supernatant was collected for assay of IL-8 concentrations using the Duoset ELISA development kit (R&D Systems, Minneapolis, Minn.).

HRV16 [1] = assay: Assessment of HRV16 induced CPE in MRC5; assay type: cell-based, human rhinovirus 16; settings: MRC5 cells; for IC50: Rhinovirus A, 96 h, HRV16 MOI of 1, 4 days, read-out: HRV16-induced CPE IC50 Value
Experimental: The supernatants were aspirated and fresh media was added and the preparations were then incubated for 4 days. Where appropriate, cells were pre-incubated with the test compound or DMSO for 2 hr, and the compounds and DMSO added again after washout of the virus. Supernatants were aspirated and incubated with methylene blue solution (2% formaldehyde, 10% methanol and 0.175% Methylene Blue) for 2 hr at RT. After washing, 1% SDS was added to each well, and plates were shaken lightly for 1-2 hr prior to reading the absorbance at 660 nm. The percentage inhibition for each well was calculated. The IC50 value was calculated from the concentration-response curve generated from the serial dilutions of the test compound.

NFκB = assay: HRV-16 induced activation of NFκB in BEAS2B cells; assay type: cell-based, human; settings: after 2 hr, at 10 MOI
Experimental: (§1) The cells were then collected by scraping on ice and nuclear extracts were prepared using a nuclear protein extraction kit (ActiveMotif, […], Belgium). NFκB activity and IRF3 activity were then measured using the TransAMTM NFκB (p65) ELISA kit or the TransAMTM IRF3 ELISA kit.

IRF-3 = assay: HRV-16 induced activation of IRF-3 in BEAS2B cells; assay type: cell-based, human; settings: after 2 hr, at 10 MOI
Experimental: as §1

HRV16 mRNA = assay: Transcripts of HRV16 by PCR in MRC5 cellular extract; assay type: cell-based, human rhinovirus 16; settings: MRC5 cells, HRV16 0.1 MOI, 3 days
Experimental: The MRC5 cells infected with virus (as described above) were used for viral RNA or mRNA detection. Total RNA extraction and reverse transcription were performed using TaqMan®Fast Cells-to-CT™ Kit (Ambion Inc. Austin Tex.). The gene transcript level of HRV16 (PrimerDesign Ltd, Southampton, UK), IFN (Applied Biosystems, Warrington, UK) and GAPDH, as a house-keeping gene (PrimerDesign Ltd, Southampton, UK) were quantified by real-time PCR using commercially available primers on a StepOnePlus™ RT-PCR system (Applied Biosystems, Warrington, UK). Variations in cDNA concentrations between different samples were corrected using the housekeeping gene, whereby the GAPDH concentration in each cDNA sample was calculated, and the cDNA diluted to contain equal amounts of GAPDH. Standard curves for GAPDH were generated by performing a dilution series of the untreated control cDNA. The relative amount of gene transcript present after different treatments was calculated and normalized by dividing the calculated value for the gene of interest by that of the house-keeping gene value.

HRV16 [2] = assay: HRV-16 infection, assessment of virus load (TCID50) in MRC5 cells; assay type: cell-based, human rhinovirus 16; settings: HRV16 0.1 MOI, 3 days
Experimental: Human rhinovirus RV16 (HRV16) was obtained from the American Type Culture Collection (Manassas, Va.). Viral stocks were generated by infecting Hela cells with HRV until 80% of the cells were cytopathic. MRC5 cells (human lung fibroblast, ATCC) were infected at 0.1 MOI (multiplicity of infection of 0.1) of HRV16 and incubated for 1 hr at 33° C. with gentle shaking to stimulate adsorption. The cells were then washed with PBS, fresh media (DMEM-5% FCS) was added and the cells were incubated for a further 72 hr. Supernatant (20 μL) was collected and 10-fold serial dilutions were prepared with DMEM containing 1% FCS. All titrations were performed by infecting confluent Hela cell monolayers with serially diluted supernatant (10^−1-10^−5) and then the cytopathic effect at each dilution 3 days after infection assessed by visual inspection. The cells were then stained with Crystal Violet for confirmation. The amount of virus required to infect 50% of Hela cells was calculated in each treatment as TCID50 (50% tissue culture infectious dose, U(unit)/20 μL). Compounds were added 2 hr before HRV16 infection and 1 hr after infection when non-infected HRV was washed out.

HRV16 [3] = assay: as above; assay type: cell-based, human rhinovirus 16; settings: pilot studies
rhinovirus = settings: Jefferson and Tyrrell 2007; cited from earlier work
[4] = listed as Fluticasone propionate

Cc1ccc(-n2nc(C(C)(C)C)cc2NC(=O)Nc2ccc(Oc3ccnc(NC(=O)N(C)C)c3)c3ccccc23)cc1 [Example 45, 3-(4-((4-(3-(3-(tert-Butyl)-1-(p-tolyl)-1H-pyrazol-5-yl)ureido)naphthalen-1-yl)oxy)pyridin-2-yl)-1,1-dimethylurea]
IC50 (ICAM-1): 0.098 nM | IC50 (IL-8): 0.041 nM | HRV16-induced CPE (in words) (HRV16 [1]): inhibited HRV16-induced CPE in MRC5 cells in a concentration-dependent manner | IC50 (HRV16 [1]): 9.4 nM

CCC(=O)O[C@]1(C(=O)SCF)[C@H](C)C[C@H]2[C@@H]3C[C@H](F)C4=CC(=O)C=C[C@]4(C)[C@@]3(F)[C@@H](O)C[C@@]21C [fluticasone propionate]
ICAM-1 expression induced by HRV16 inoculation (in words) (ICAM-1; 2 hr infection): much more modest | Concentrations at which concentration-dependent effects on ICAM-1 are apparent, relative to Reference Compound 2 (ICAM-1; results not shown): 10,000 fold | NFκB activation (HRV-16 induced) (NFκB): no clear effect | NFκB activation (HRV-16 induced) (NFκB; [4]): No effect | IRF-3 activation (HRV-16 induced) (IRF-3): tendency to inhibit | HRV16 mRNA detected in cellular extracts (HRV16 mRNA): without effect | HRV-16 virus load (extracellular) (HRV16 [2]): without effect | HRV-16 virus load (extracellular) (HRV16 [2]; [4]): No effect

Cc1cc(CCCOc2c(C)cc(-c3noc(C(F)(F)F)n3)cc2C)on1 [pleconaril]
Effect of treatment time versus the point of inoculation with HRV16 (HRV16 [3]): essentially only effective if the drug was administered prior to infection | Activity against rhinovirus infections in clinical development (rhinovirus): active against rhinovirus infections | HRV16 mRNA detected in cellular extracts (HRV16 mRNA): clearly inhibits | HRV-16 virus load (extracellular) (HRV16 [2]): clearly inhibits

Cc1ccc(-n2nc(C(C)(C)C)cc2NC(=O)Nc2ccc(OCCN3CCOCC3)c3ccccc23)cc1 [BIRB-796]
IRF-3 activation (HRV-16 induced) (IRF-3): tendency to inhibit | HRV-16 virus load (extracellular) (HRV16 [2]): No effect

COc1cc(Nc2ncc(F)c(Nc3ccc4c(n3)NC(=O)C(C)(C)O4)n2)cc(OC)c1OC [Example R-406]
NFκB activation (HRV-16 induced) (NFκB): inhibited

Cc1ccc(-n2nc(C(C)(C)C)cc2NC(=O)Nc2ccc(Oc3ccnc(NC(N)=O)c3)c3ccccc23)cc1 [Example 30, 4-(4-(3-(3-tert-Butyl-1-p-tolyl-1H-pyrazol-5-yl)ureido)naphthalen-1-yloxy)pyridin-2-ylurea]
IC50 (IL-8): 0.019 nM | HRV16-induced CPE (in words) (HRV16 [1]): inhibited HRV16-induced CPE in MRC5 cells in a concentration-dependent manner | IC50 (HRV16 [1]): 2.9 nM

CNC(=O)Nc1cc(Oc2ccc(NC(=O)Nc3cc(C(C)(C)C)nn3-c3ccc(C)cc3)c3ccccc23)ccn1 [Example 37]
IC50 (ICAM-1): 0.029 nM | IC50 (IL-8): 0.12 nM | HRV16-induced CPE (in words) (HRV16 [1]): inhibited HRV16-induced CPE in MRC5 cells in a concentration-dependent manner | IC50 (HRV16 [1]): 24 nM

Cc1ccc(-n2nc(C(C)(C)C)cc2NC(=O)Nc2ccc(Oc3ccnc(NC(=O)N4CC[C@@H](N(C)C)C4)c3)c3ccccc23)cc1 [Example 55, (R)-N-(4-(4-(3-(3-tert-Butyl-1-p-tolyl-1H-pyrazol-5-yl)ureido)naphthalen-1-yloxy)pyridin-2-yl)-3-(dimethylamino)pyrrolidine-1-carboxamide]
HRV16-induced CPE (in words) (HRV16 [1]): inhibited HRV16-induced CPE in MRC5 cells in a concentration-dependent manner | IC50 (HRV16 [1]): 14.3 nM

Cc1ccc(-n2nc(C(C)(C)C)cc2NC(=O)Nc2ccc(Oc3ccnc(NC(=O)N4CCOCC4)c3)c3ccccc23)cc1 [Example 43, N-(4-(4-(3-(3-tert-Butyl-1-p-tolyl-1H-pyrazol-5-yl)ureido)naphthalen-1-yloxy)pyridin-2-yl)morpholine-4-carboxamide]
IC50 (IL-8): 0.069 nM | HRV16-induced CPE (in words) (HRV16 [1]): inhibited HRV16-induced CPE in MRC5 cells in a concentration-dependent manner | IC50 (HRV16 [1]): 9.5 nM

Cc1ccc(-n2nc(C(C)(C)C)cc2NC(=O)Nc2ccc(Oc3ccnc(NC(=O)N4CCN(C)CC4)c3)c3ccccc23)cc1 [Example 44, N-(4-((4-(3-(3-(tert-Butyl)-1-(p-tolyl)-1H-pyrazol-5-yl)ureido)naphthalen-1-yl)oxy)pyridin-2-yl)-4-methylpiperazine-1-carboxamide]
IC50 (ICAM-1): 0.069 nM | IC50 (IL-8): 0.041 nM | HRV16-induced CPE (in words) (HRV16 [1]): inhibited HRV16-induced CPE in MRC5 cells in a concentration-dependent manner | IC50 (HRV16 [1]): 16.3 nM

Cc1ccc(-n2nc(C(C)(C)C)cc2NC(=O)Nc2ccc(Oc3ccnc(NC(=O)N4CCCC4)c3)c3ccccc23)cc1 [Example 14, N-(4-(4-(3-(3-tert-Butyl-1-p-tolyl-1H-pyrazol-5-yl)ureido)naphthalen-1-yloxy)pyridin-2-yl)pyrrolidine-1-carboxamide]
HRV16-induced CPE (in words) (HRV16 [1]): inhibited HRV16-induced CPE in MRC5 cells in a concentration-dependent manner | IC50 (HRV16 [1]): 3.3 nM
